These results are taken from patent US11384078B2, “5,6-fused-bicyclic compounds and compositions for the treatment of parasitic diseases” (NOVARTIS AG, priority 2017, dated 2022).

Format in all cases: cell-based
Test [1] deals with L. donovani HU3 strain in mouse peritoneal macrophages. In words: Assay for inhibition of parasitemia of Leishmania donovani in mouse macrophages (SYBR Green nuclei count, high-content imaging). As to conditions: Leishmania donovani, Peritoneal macrophage, L. donovani in mouse peritoneal macrophages; read-out: L. donovani in Mouse Macrophages EC50. Put shortly: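 Parasite numbers were counted from SYBR Green-stained nuclei imaged by high-content microscopy after paraformaldehyde fixation and Triton permeabilization. Before this, compound was applied for 5 days at 37° C to BALB/c peritoneal macrophages (2×10^4/well) that had been exposed 24 h to 4×10^5 L. donovani HU3 amastigotes harvested from infected mouse spleens.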

For test [2], the system named is Trypanosoma brucei brucei (Lister 427) strain. The experiment in a line: Assay for growth inhibition against Trypanosoma brucei brucei (Cell TiterGlo ATP luminescence). As to conditions: T. brucei brucei (Lister 427), read-out: T. Brucei (HAT) EC50. Put shortly: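 Growth read-out is cellular ATP by CellTiter-Glo luminescence, measured 30 min after reagent addition, following 2-day incubation at 37 °C in CO2. Parasites (10,000/mL, HMI-9 plus 10% FBS and 10% serum plus) faced 10 threefold dilutions in duplicate; IC50 taken as 50% growth inhibition versus untreated.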
In general terms: ATP-based viability assays read luminescence as a measure of living cells.

Test [3] concerns Leishmania donovani axenic amastigote. In words: In vitro assay for growth inhibition of Leishmania donovani axenic amastigote (Cell TiterGlo luminescence). As to conditions: Leishmania donovani, L. donovani axenic amastigotes in vitro; read-out: L. donovani amastigotes EC50. The essentials: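 Compound-treated wells received 9600 axenic amastigotes in RPMI 1640-based medium at pH 5.5 (37 °C, 5% CO2). Growth measured as ATP luminescence (CellTiter-Glo) after 2-day incubation; DMSO and reference compounds served as controls.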

In test [4] the test system is Trypanosoma cruzi amastigotes cultured in 3T3 fibroblast cells. In words: Assay for growth inhibition of kinetoplastid parasite Trypanosoma cruzi (beta-galactosidase Tulahuen strain, CPRG readout). As to conditions: Trypanosoma cruzi, Fibroblast, T. cruzi amastigotes in 3T3 fibroblast cells; read-out: Buckner infectious T. cruzi EC50. Put shortly: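 3T3 fibroblasts (1,000 cells/well) plated overnight, treated with compound in DMSO, then infected with 10,000 Lac-Z-expressing Tulahuen trypomastigotes. After 6 days, 0.6 mM CPRG with 0.6% NP-40 added for 2 h at room temperature; absorbance gives relative intracellular amastigote numbers. Benznidazole and nifurtimox serve as positive controls.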

Like-named read-outs stand apart in the source and are kept apart here.

Regarding `O=C(Nc1ccc(F)c(-n2cc3cc(N4CCC5(CC5)C4)cnc3n2)c1)N1CCC2(CC2)C1` [Compound 242, N-[3-(5-{5-azaspiro[2.4]heptan-5-yl}-2H-pyrazolo[3,4-b]pyridin-2-yl)-4-fluorophenyl}-5-azaspiro[2.4]heptane-5-carboxamide], the EC50 (as a rule, the midpoint of the concentration-response curve) in test [1] was 0.106 µM; in test [2] (Trypanosoma brucei), 0.013 µM; in test [3] it was 1.97 µM; in test [4] it was 0.007 µM.

For `O=C(Nc1ccc(F)c(-n2cc3cc(-c4ccccn4)cnc3n2)c1)[C@@H]1C[C@@H]1F` (racemic) [Compound 349, (1S,2S)-2-fluoro-N-{4-fluoro-3-[5-(pyridin-2-yl)-2H-pyrazolo[3,4-b]pyridin-2-yl]phenyl}cyclopropane-1-carboxamide], the concentration giving a half-maximal response (EC50) in test [1] was determined as 0.102 µM; in test [2] (Trypanosoma brucei), 0.043 µM; in test [3], 0.096 µM; in test [4], 0.085 µM.

Regarding `C[C@@H]1CN(c2cnc3nn(-c4cc(NC(=O)N5CC(F)C5)ccc4F)cc3c2)C[C@H](C)O1` [Compound 230, N-(3-{5-[(2R,6S)-2,6-dimethylmorpholin-4-yl]-2H-pyrazolo[3,4-b]pyridin-2-yl]-4-fluorophenyl)-3-fluoroazetidine-1-carboxamide], the EC50 in test [1] came to 0.022 µM; in test [2] it was 0.005 µM; in test [3], 0.037 µM; in test [4], 0.047 µM.

In the case of `Cc1nc(C)c(C(=O)Nc2ccc(F)c(-n3cc4cc(N5CCOCC5)cnc4n3)c2)o1` [Compound 158, N-{4-fluoro-3-[5-(morpholin-4-yl)-2H-pyrazolo[3,4-b]pyridin-2-yl]phenyl}-2,4-dimethyl-1,3-oxazole-5-carboxamide], the EC50 in test [1] is 0.016 µM; in test [2] (Trypanosoma brucei), less than 0.023 µM; in test [3] it was 0.016 µM; in test [4] it was 0.015 µM.

Take `O=C(Nc1ccc(F)c(-n2cc3cc(N4CC(F)(F)C4)cnc3n2)c1)N1CC(F)C1` [Compound 298, N-{3-[5-(3,3-difluoroazetidin-1-yl)-2H-pyrazolo[3,4-b]pyridin-2-yl]-4-fluorophenyl}-3-fluoroazetidine-1-carboxamide]: the EC50 in test [1] stood at 0.004 µM; in test [2] (Trypanosoma brucei), 0.004 µM; in test [3], 0.014 µM; in test [4], 0.004 µM.

On to `O=C(Nc1ccc(F)c(-n2cc3cc(N4CC(F)(F)C4)cnc3n2)c1)N1CC(F)(F)C1` [Compound 299, N-{3-[5-(3,3-difluoroazetidin-1-yl)-2H-pyrazolo[3,4-b]pyridin-2-yl]-4-fluorophenyl}-3,3-difluoroazetidine-1-carboxamide], for which the EC50 in test [1] was found to be 0.007 µM; in test [2] (Trypanosoma brucei), 0.005 µM; in test [3] it was 0.029 µM; in test [4], 0.014 µM.

`Cc1cn(-c2cnc3nn(-c4cc(NC(=O)N5CC(F)C5)ccc4F)cc3c2)cn1` [Compound 328, 3-fluoro-N-{4-fluoro-3-[5-(4-methyl-1H-imidazol-1-yl)-2H-pyrazolo[3,4-b]pyridin-2-yl]phenyl}azetidine-1-carboxamide]: the EC50 in test [1] is 0.16 µM; in test [2] (Trypanosoma brucei) it was 0.017 µM; in test [3] it was 0.023 µM; in test [4], 0.083 µM.

For `CC(C)c1cnc2nn(-c3cc(NC(=O)CC(F)(F)F)ccc3F)cc2c1` [Compound 212, 3,3,3-trifluoro-N-{4-fluoro-3-[5-(propan-2-yl)-2H-pyrazolo[3,4-b]pyridin-2-yl]phenyl}propanamide], the EC50 was found to be 8.86 µM in test [1], 2.03 µM in test [2] (Trypanosoma brucei), 11.3 µM in test [3] and 1.75 µM in test [4].

With `CC(C)c1cnc2nn(-c3cc(NC(=O)C4CCC(C(F)(F)F)C4)ccc3F)cc2c1` (stereo not drawn) [Compound 71, N-{4-fluoro-3-[5-(propan-2-yl)-2H-pyrazolo[3,4-b]pyridin-2-yl]phenyl}-3-(trifluoromethyl)cyclopentane-1-carboxamide], the half-maximal effective concentration (EC50) in test [1] was 2.8 µM; in test [2] (Trypanosoma brucei), 3 µM; in test [3] it was 4.8 µM; in test [4], 1.4 µM.

For `O=C(Nc1ccc(F)c(-n2cc3cc(CC(F)(F)F)cnc3n2)c1)N1CC(F)(F)C1` [Compound 166, 3,3-difluoro-N-{4-fluoro-3-[5-(2,2,2-trifluoroethyl)-2H-pyrazolo[3,4-b]pyridin-2-yl]phenyl}azetidine-1-carboxamide], the 50% effective concentration (EC50) in test [1] is 0.0037 µM; in test [2] (Trypanosoma brucei), less than 0.023 µM; in test [3], 0.0025 µM; in test [4], 0.0017 µM.

As for `O=C1CCC2(CN(c3cnc4nn(-c5cc(NC(=O)N6CC(F)C6)ccc5F)cc4c3)C2)N1` [Compound 245, 3-fluoro-N-[4-fluoro-3-(5-{6-oxo-2,5-diazaspiro[3.4]octan-2-yl}-2H-pyrazolo[3,4-b]pyridin-2-yl)phenyl}azetidine-1-carboxamide], the EC50 in test [1] is 1.49 µM; in test [2] (Trypanosoma brucei), 0.062 µM; in test [3], 0.311 µM; in test [4], 0.951 µM.

As for `O=C(Nc1ccc(F)c(-n2cc3cc(-c4ccccn4)cnc3n2)c1)N1CC(F)(F)C1` [Compound 39, 3,3-difluoro-N-(4-fluoro-3-(5-(pyridin-2-yl)-2H-pyrazolo[3,4-b]pyridin-2-yl)phenyl)azetidine-1-carboxamide], the EC50 in test [1] is 0.0038 µM; in test [2] (Trypanosoma brucei), less than 0.023 µM; in test [3], 0.0024 µM; in test [4], 0.002 µM.

As to `O=C(Nc1ccc(F)c(-n2cc3cc(-c4ncccc4Cl)cnc3n2)c1)N1CC(F)(F)C1` [Compound 310, N-{3-[5-(3-chloropyridin-2-yl)-2H-pyrazolo[3,4-b]pyridin-2-yl]-4-fluorophenyl}-3,3-difluoroazetidine-1-carboxamide], the EC50 stood at 0.002 µM in test [1], 0.005 µM in test [2] (Trypanosoma brucei), 0.002 µM in test [3] and 0.001 µM in test [4].

Turning to `[2H]C([2H])([2H])N(c1cnc2nn(-c3cc(NC(=O)N4CC(F)(F)C4)ccc3F)cc2c1)C([2H])([2H])[2H]` [Compound 307, N-(3-{5-[bis(^2H3)methylamino]-2H-pyrazolo[3,4-b]pyridin-2-yl}-4-fluorophenyl)-3,3-difluoroazetidine-1-carboxamide], the EC50 in test [1] came to 0.012 µM; in test [2] (Trypanosoma brucei), 0.005 µM; in test [3], 0.281 µM; in test [4] it was 0.016 µM.

`CC(C)c1cnc2nn(-c3cc(NC(=O)c4ncc(F)cc4F)ccc3F)cc2c1` [Compound 70, 3,5-difluoro-N-{4-fluoro-3-[5-(propan-2-yl)-2H-pyrazolo[3,4-b]pyridin-2-yl]phenyl}pyridine-2-carboxamide]: the EC50 came out at 0.1 µM in test [1], 0.038 µM in test [2] (Trypanosoma brucei), 0.14 µM in test [3] and 0.022 µM in test [4].

Take `N#Cc1ccc(C(=O)Nc2ccc(F)c(-n3cc4cc(-c5ccccn5)cnc4n3)c2)o1` [Compound 206, 5-cyano-N-{4-fluoro-3-[5-(pyridin-2-yl)-2H-pyrazolo[3,4-b]pyridin-2-yl]phenyl}furan-2-carboxamide]: the EC50 in test [1] was determined as 0.013 µM; in test [2] (Trypanosoma brucei), 0.005 µM; in test [3], 0.002 µM; in test [4] it was 0.001 µM.

For `COCC1CN(c2cnc3nn(-c4cc(NC(=O)N5CC(F)C5)ccc4F)cc3c2)C1` [Compound 232, 3-fluoro-N-(4-fluoro-3-{5-[3-(methoxymethyl)azetidin-1-yl]-2H-pyrazolo[3,4-b]pyridin-2-yl]phenyl)azetidine-1-carboxamide], the concentration for a half-maximal effect (EC50) in test [1] was found to be 0.01 µM; in test [2], 0.005 µM; in test [3], 0.012 µM; in test [4], 0.012 µM.

Consider `O=C(Nc1ccc(F)c(-n2cc3cc(N4C5CCC4COC5)cnc3n2)c1)N1CC(F)C1` [Compound 235, 3-fluoro-N-[4-fluoro-3-(5-{3-oxa-8-azabicyclo[3.2.1]octan-8-yl}-2H-pyrazolo[3,4-b]pyridin-2-yl)phenyl}azetidine-1-carboxamide], for which the EC50 amounted to 0.01 µM in test [1], 0.005 µM in test [2] (Trypanosoma brucei), 0.011 µM in test [3] and 0.011 µM in test [4].

Turning to `CC(C)c1cnc2nn(-c3cc(NC(=O)CC4CC4)ccc3F)cc2c1` [Compound 69, 2-cyclopropyl-N-{4-fluoro-3-[5-(propan-2-yl)-2H-pyrazolo[3,4-b]pyridin-2-yl]phenyl}acetamide], the EC50 in test [1] stood at 0.15 µM; in test [2] (Trypanosoma brucei) it was 0.04 µM; in test [3], 0.17 µM; in test [4] it was 0.068 µM.

As for `CCC(C)c1cnc2nn(-c3cc(NC(=O)N4CCC4)ccc3F)cc2c1` (stereo not drawn) [Compound 96, N-{3-[5-(butan-2-yl)-2H-pyrazolo[3,4-b]pyridin-2-yl]-4-fluorophenyl}azetidine-1-carboxamide], the EC50 in test [1] was 0.021 µM; in test [2] (Trypanosoma brucei), less than 0.023 µM; in test [3] it was 0.023 µM; in test [4], 0.018 µM.

Take `O=C(Nc1ccc(F)c(-n2cc3cc(N4CCC4)cnc3n2)c1)N1CC[C@@H](F)C1` [Compound 149]: the concentration for a half-maximal effect (EC50) in test [1] was 0.0079 µM; in test [2] (Trypanosoma brucei), less than 0.023 µM; in test [3], 0.011 µM; in test [4] it was 0.0054 µM.
